In brackets after ≈: the same amount, converted by molar mass.
Experiments:
Staph. aureus 0119 = experiment: MIC by agar dilution method, Staph. aureus 0119; format: cell-based; conditions: Staphylococcus aureus, read-out: minimum inhibitory concentration (MIC)
Shigella sonnei E33 = experiment: MIC by agar dilution method, Shigella sonnei E33; format: cell-based; conditions: read-out: minimum inhibitory concentration (MIC)
Cit. freundii GN346 = experiment: MIC by agar dilution method, Cit. freundii GN346; format: cell-based; conditions: Citrobacter freundii, read-out: minimum inhibitory concentration (MIC)
Staph. aureus ATCC6538P = experiment: MIC by agar dilution method, Staph. aureus ATCC6538P; format: cell-based; conditions: Staphylococcus aureus, read-out: minimum inhibitory concentration (MIC)
E. coli NIHJ-JC2 = experiment: MIC by agar dilution method, E. coli NIHJ-JC2; format: cell-based; conditions: Escherichia coli, NIHJJC2, read-out: minimum inhibitory concentration (MIC)
Enterobac. cloacae GN336 = experiment: MIC by agar dilution method, Enterobac. cloacae GN336; format: cell-based; conditions: read-out: minimum inhibitory concentration (MIC)
[1] = tested on: Bacillus subtilis ATCC6633; experiment: MIC by agar dilution method, Bacillus subtilis ATCC6633; format: cell-based; conditions: read-out: minimum inhibitory concentration (MIC)
[2] = tested on: Kleb. pneumoniae ATCC10031; experiment: MIC by agar dilution method, Kleb. pneumoniae ATCC10031; format: cell-based; conditions: Klebsiella pneumoniae, read-out: minimum inhibitory concentration (MIC)
E. coli W3630RGN14 = experiment: MIC by agar dilution method, E. coli W3630RGN14; format: cell-based; conditions: Escherichia coli, W3630RGN14, read-out: minimum inhibitory concentration (MIC)
[3] = tested on: Enterobac. aerogenes 0655; experiment: MIC by agar dilution method, Enterobac. aerogenes 0655; format: cell-based; conditions: read-out: minimum inhibitory concentration (MIC)
Proteus morganii 0239 = experiment: MIC by agar dilution method, Proteus morganii 0239; format: cell-based; conditions: Morganella morganii, read-out: minimum inhibitory concentration (MIC)
Serratia marcescens = experiment: MIC by agar dilution method, Serratia marcescens; format: cell-based; conditions: read-out: minimum inhibitory concentration (MIC)
Strept. pyogenes N.Y. 5 = experiment: MIC by agar dilution method, Strept. pyogenes N.Y. 5; format: cell-based; conditions: Streptococcus pyogenes, read-out: minimum inhibitory concentration (MIC)
Staph. aureus MS27 = experiment: MIC by agar dilution method, Staph. aureus MS27; format: cell-based; conditions: Staphylococcus aureus, read-out: minimum inhibitory concentration (MIC)
E. coli W3630 = experiment: MIC by agar dilution method, E. coli W3630; format: cell-based; conditions: Escherichia coli, read-out: minimum inhibitory concentration (MIC)
Proteus rettgeri ACR = experiment: MIC by agar dilution method, Proteus rettgeri ACR; format: cell-based; conditions: Providencia rettgeri, read-out: minimum inhibitory concentration (MIC)
Solubility = format: physicochemical
[4] = tested on: Pseudo. aeruginosa IAM1095; experiment: MIC by agar dilution method, Pseudo. aeruginosa IAM1095; format: cell-based; conditions: Pseudomonas aeruginosa, read-out: minimum inhibitory concentration (MIC)
[5] = tested on: Salm. enteritidis Gaertner; experiment: MIC by agar dilution method, Salm. enteritidis Gaertner; format: cell-based; conditions: Salmonella enterica, read-out: minimum inhibitory concentration (MIC)
[6] = tested on: Staph. epidermidis sp-al-1; experiment: MIC by agar dilution method, Staph. epidermidis sp-al-1; format: cell-based; conditions: Staphylococcus epidermidis, SPAL1, read-out: minimum inhibitory concentration (MIC)

## CNC1C(O)C(NC)C2OC3(O)C(OC)=CC(C)OC3OC2C1O (stereo not drawn) [acmimycin]
Staph. aureus 0119
  MIC: > 100 µg/mL
Shigella sonnei E33
  MIC: 25 µg/mL (≈ 72.2 µM)
Cit. freundii GN346
  MIC: > 100 µg/mL
Staph. aureus ATCC6538P
  MIC: 100 µg/mL (≈ 289 µM)
E. coli NIHJ-JC2
  MIC: 50 µg/mL (≈ 144 µM)
Enterobac. cloacae GN336
  MIC: 50 µg/mL (≈ 144 µM)
[1]
  MIC: 25 µg/mL (≈ 72.2 µM)
[2]
  MIC: 12.5 µg/mL (≈ 36.1 µM)
E. coli W3630RGN14
  MIC: > 100 µg/mL
[3]
  MIC: > 100 µg/mL
Proteus morganii 0239
  MIC: > 100 µg/mL
Serratia marcescens
  MIC: 25 µg/mL (≈ 72.2 µM)
Strept. pyogenes N.Y. 5
  MIC: 3.1 µg/mL (≈ 8.95 µM)
Staph. aureus MS27
  MIC: 100 µg/mL (≈ 289 µM)
E. coli W3630
  MIC: 25 µg/mL (≈ 72.2 µM)
Proteus rettgeri ACR
  MIC: 100 µg/mL (≈ 289 µM)
Solubility; in acetone
  Solubility: insoluble
Solubility; in benzene
  Solubility: insoluble
Solubility; in ethyl acetate
  Solubility: insoluble
Solubility; in lower alcohols such as methanol
  Solubility: slightly soluble
Solubility; in water
  Solubility: soluble
[4]
  MIC: > 100 µg/mL
[5]
  MIC: 25 µg/mL (≈ 72.2 µM)
[6]
  MIC: 50 µg/mL (≈ 144 µM)

— US4517296A, “Antibiotic acmimycin and its production” (Toyo Jozo Kabushiki Kaisha, priority 1982, dated 1985)
